According to patent US20250009766A1, “CA[…] TREATMENT OF SEIZURES AND EPILEPSY” (The Regents of the University of California, priority 2021, published 2025):
“Also recorded” adds a separate entry of the source.

Tests used:
Assay type in all cases: in vivo
male CF1 mice [1] = test: Mouse maximal electroshock (MES) test, male CF1 mice; conditions: for Percentage protection from Tonic Hind limb Extension: Male CF1 mice
Method: (§1) Animals. Male NIH Swiss or CF1 mice (Charles-Rivers, 22-34g) were used in the present study. In most of the experiments, male CF1 mice were used. In the experiment exploring the strain difference between CBD and CBG efficacy in the MES test, these compounds were also tested in male NIH Swiss mice. All experiments involving animals complied with the ARRIVE guidelines of the National Centre for the Replacement, Refinement, and Reduction of Animals in Research and were performed in accordance with the National Institutes of Health Guide for the Care and Use of Laboratory Animals (NIH publication No. 8023, revised in 1978) under protocols approved by the University of California, Davis, Institutional Animal Care and Use Committee.
(§2) All the cannabinoids were prepared in ethanol: Cremophor: saline in the ratio of 2:1:17. These were administered Intraperitoneally (IP) in a dose volume of 10 ml/kg.
(§3) Mouse maximal electroshock test. Samples of CBD, both from decarboxylation of cannabidiolic acid (CBDA) and a commercial source, were tested in parallel as a comparator. Samples of CBD and CBG were prepared by decarboxylating their respective active precursors CBDA and cannabigerolic acid (CBGA; 95+% pure) by heating at 102° C. (215° F.) for 60 min. The precursor compounds were isolated from hemp. For comparison, the antiseizure activity of pure, commercial, hemp-derived CBD and chemically synthesized CBG in crystalline form was also determined in the MES test. Also investigated was whether CBDA and CBGA have antiseizure potential at the highest dose tested (150 mg/kg) in this model. Male CF1 mice were used in the current study. Sixty min after IP injection of the cannabinoids, the animals were subjected to a 0.2-s, 60-Hz, 50-mA electrical stimulus delivered with corneal electrodes (5 mm diameter stainless steel balls) wetted with 0.9% saline. Animals failing to show THLE were scored as protected. In the time-response curve experiment, CBG was administered at different times before the MES test. In most of the experiments, male CF1 mice were used. In the experiment exploring the strain difference between CBD and CBG efficacy in the MES test, these compounds were additionally tested in male NIH Swiss mice.

male NIH Swiss mice = test: Mouse maximal electroshock (MES) test, male NIH Swiss mice (strain difference); conditions: for Percentage protection from Tonic Hind limb Extension: Male NIH Swiss mice; for effect in MES test: male NIH Swiss mice
Method: as §1, §2, §3

male CF1 mice [2] = test: Mouse pentylenetetrazol (PTZ) test
Method: as §1, §2
Mouse pentylenetetrazol (PTZ) test. Sixty min after IP injection of either cannabidiol (CBD) or cannabigerol (CBG) in male CF1 mice, the animals were challenged with 80 or 100 mg/kg PTZ delivered via intraperitoneal (IP) route of administration. The onset of myoclonic jerks, generalized clonus, tonus/tonic extension, and mortality was observed. The percentage of animals was further calculated that underwent these phases caused by PTZ. Failure to observe such phases or delayed onset is considered as protection.

[3] = 50 mg/kg IP, 60 min before MES, male CF1 mice
[4] = 100 mg/kg IP, 60 min before MES, male CF1 mice
[5] = 150 mg/kg IP, 60 min before MES, male CF1 mice
[6] = 200 mg/kg IP, 60 min before MES, male CF1 mice
[7] = male CF1 mice, IP, 60 min before MES
[8] = protection from THLE, male CF1 mice, IP, 60 min before MES
[9] = dose 100, 1 h before MES (0.2-s, 60-Hz, 50-mA)
[10] = dose 150, 1 h before MES (0.2-s, 60-Hz, 50-mA)
[11] = PTZ 80 mg/kg IP, treatment 100 mg/kg IP 1 h before
[12] = PTZ 80 mg/kg IP, treatment 150 mg/kg IP 1 h before
[13] = PTZ 100 mg/kg IP, treatment 150 mg/kg IP 1 h before
[14] = high dose PTZ test (100 mg/kg), treatment 150 mg/kg IP

CCCCCc1cc(O)c2c(c1)OC(C)(CCC=C(C)C)C=C2 (stereo not drawn) [CBC oil, cannabichromene]
Percentage Protection (male CF1 mice [1]; [3]): 11.1% | Percentage Protection (male CF1 mice [1]; [4]): 12.5% | Percentage Protection (male CF1 mice [1]; [5]): 12.5% | Percentage Protection (male CF1 mice [1]; [6]): 25% | fraction of animals protected (male CF1 mice [1]; 250 mg/kg IP, 60 min before MES, male CF1 mice): 25% | potency relative to CBD and CBG in MES test (male CF1 mice [1]; [7]): less potent than CBD and CBG

C=C(C)[C@@H]1CCC(C)=C[C@H]1c1c(O)cc(CCCCC)cc1O [CBD obtained from CBDA isolates, cannabidiol]
doses at which animals were protected from THLE (male CF1 mice [1]; [7]): 25 to 150 mg/kg | ED50 (mg/kg, IP) (male CF1 mice [1]; [8]): 62.7 ± 5.6 mg/kg

C=C(C)[C@@H]1CCC(C)=C[C@H]1c1c(O)cc(CCCCC)cc1O [CBD, cannabidiol]
Percentage protection from Tonic Hind limb Extension (male CF1 mice [1]; [9]): 100% | Percentage protection from Tonic Hind limb Extension (male CF1 mice [1]; [10]): 100% | effect in MES test (male CF1 mice [1]; male CF1 mice): protected animals from Tonic Hindlimb Extension (THLE); also recorded: effective | Percentage protection from Tonic Hind limb Extension (male NIH Swiss mice; [9]): 12.5% | Percentage protection from Tonic Hind limb Extension (male NIH Swiss mice; [10]): 12.5% | effect in MES test (male NIH Swiss mice): not protective | Death time (s) (male CF1 mice [2]; [11]): None | Onset of generalized clonus (male CF1 mice [2]; [11]): 333.9 ± 174.3 s | Onset of jerks (male CF1 mice [2]; [11]): 138.1 ± 61.9 s | Onset of tonus (s) (male CF1 mice [2]; [11]): None | Percentage animals having generalized clonus (male CF1 mice [2]; [11]): 87.5% | Percentage animals having tonus (male CF1 mice [2]; [11]): None | Percentage mortality (male CF1 mice [2]; [11]): 0% | Percentage of animals having myoclonic jerks (male CF1 mice [2]; [11]): 100% | Death time (s) (male CF1 mice [2]; [12]): None | Onset of generalized clonus (male CF1 mice [2]; [12]): 612.5 ± 515.5 s | Onset of jerks (male CF1 mice [2]; [12]): 95.6 ± 13.3 s | Onset of tonus (s) (male CF1 mice [2]; [12]): None | Percentage animals having generalized clonus (male CF1 mice [2]; [12]): 25% | Percentage animals having tonus (male CF1 mice [2]; [12]): None | Percentage mortality (male CF1 mice [2]; [12]): 0% | Percentage of animals having myoclonic jerks (male CF1 mice [2]; [12]): 100% | Death time (s) (male CF1 mice [2]; [13]): None | Onset of generalized clonus (male CF1 mice [2]; [13]): 329.3 ± 152.3 s | Onset of jerks (male CF1 mice [2]; [13]): 63.6 ± 4.8 s | Onset of tonus (male CF1 mice [2]; [13]): 1362.5 ± 888.5 s | Percentage animals having generalized clonus (male CF1 mice [2]; [13]): 100% | Percentage animals having tonus (male CF1 mice [2]; [13]): 25% | Percentage mortality (male CF1 mice [2]; [13]): 0% | Percentage of animals having myoclonic jerks (male CF1 mice [2]; [13]): 100% | effect on generalized clonus (male CF1 mice [2]; high dose PTZ test (100 mg/kg)): no difference | latency to onset of myoclonic jerks (male CF1 mice [2]; [14]): increased the latency to onset of myoclonic jerks | protection from tonus phase and mortality (male CF1 mice [2]; [14]): protected animals from undergoing tonus phase and mortality | protection from generalized clonus (male CF1 mice [2]; low dose PTZ test (80 mg/kg, IP), treatment 150 mg/kg IP): effective in protecting animals from generalized clonus

CCCCCc1cc(O)c(C/C=C(\C)CCC=C(C)C)c(O)c1 [CBG obtained from CBGA, cannabigerol]
doses at which animals were protected from THLE (male CF1 mice [1]; [7]): 65 to 200 mg/kg | ED50 (male CF1 mice [1]; [8]): 99 ± 7.01 mg/kg

CCCCCc1cc(O)c(C/C=C(\C)CCC=C(C)C)c(O)c1 [CBG, cannabigerol]
Percentage protection from Tonic Hind limb Extension (male CF1 mice [1]; [9]): 62.5% | Percentage protection from Tonic Hind limb Extension (male CF1 mice [1]; [10]): 75% | effect in MES test (male CF1 mice [1]; male CF1 mice): protected animals from Tonic Hindlimb Extension (THLE); also recorded: effective | time of maximum response (protection from THLE) after administration (male CF1 mice [1]; single IP injection of 100 mg/kg, male CF1 mice, tested 15-240 min): 60 to 120 min | Percentage protection from Tonic Hind limb Extension (male NIH Swiss mice; [9]): 12.5% | Percentage protection from Tonic Hind limb Extension (male NIH Swiss mice; [10]): 12.5% | effect in MES test (male NIH Swiss mice): not protective | Death time (s) (male CF1 mice [2]; [11]): None | Onset of generalized clonus (male CF1 mice [2]; [11]): 199.1 ± 90.6 s | Onset of jerks (male CF1 mice [2]; [11]): 101.1 ± 50.7 s | Onset of tonus (s) (male CF1 mice [2]; [11]): None | Percentage animals having generalized clonus (male CF1 mice [2]; [11]): 87.5% | Percentage animals having tonus (male CF1 mice [2]; [11]): None | Percentage mortality (male CF1 mice [2]; [11]): 0% | Percentage of animals having myoclonic jerks (male CF1 mice [2]; [11]): 87.5% | Death time (s) (male CF1 mice [2]; [12]): None | Onset of generalized clonus (male CF1 mice [2]; [12]): 117.8 ± 46.8 s | Onset of jerks (male CF1 mice [2]; [12]): 93 ± 26.6 s | Onset of tonus (male CF1 mice [2]; [12]): 852.5 ± 170.5 s | Percentage animals having generalized clonus (male CF1 mice [2]; [12]): 62.5% | Percentage animals having tonus (male CF1 mice [2]; [12]): 25% | Percentage mortality (male CF1 mice [2]; [12]): 0% | Percentage of animals having myoclonic jerks (male CF1 mice [2]; [12]): 100% | Death time (male CF1 mice [2]; [13]): 1082.6 ± 265.5 s | Onset of generalized clonus (male CF1 mice [2]; [13]): 200.8 ± 105.9 s | Onset of jerks (male CF1 mice [2]; [13]): 50.1 ± 3.3 s | Onset of tonus (male CF1 mice [2]; [13]): 1351.3 ± 410.7 s | Percentage animals having generalized clonus (male CF1 mice [2]; [13]): 100% | Percentage animals having tonus (male CF1 mice [2]; [13]): 100% | Percentage mortality (male CF1 mice [2]; [13]): 62.5% | Percentage of animals having myoclonic jerks (male CF1 mice [2]; [13]): 100% | overall effect in PTZ seizure test (male CF1 mice [2]; PTZ IP, male CF1 mice): had no effect | protection from mortality (male CF1 mice [2]; high dose PTZ): protected some animals from mortality

C=C(C)[C@@H]1CCC(C)=C[C@H]1c1c(O)cc(CCCCC)c(C(=O)O)c1O [Cannabidiolic acid (CBDA), cannabidiolic acid]
Percentage Protection (male CF1 mice [1]; [5]): 0% | antiseizure activity (male CF1 mice [1]; highest dose tested (150 mg/kg), male CF1 mice): no antiseizure activity

CCCCCc1cc(O)c(C/C=C(\C)CCC=C(C)C)c(O)c1C(=O)O [Cannabigerolic acid (CBGA), cannabigerolic acid]
Percentage Protection (male CF1 mice [1]; [5]): 25%

C=C(C)[C@@H]1CCC(C)=C[C@H]1c1c(O)cc(CCCCC)cc1O [Crystalline hemp derived CBD, cannabidiol]
Percentage Protection (male CF1 mice [1]; [3]): 0% | Percentage Protection (male CF1 mice [1]; 65 mg/kg IP, 60 min before MES, male CF1 mice): 37.5% | Percentage Protection (male CF1 mice [1]; 75 mg/kg IP, 60 min before MES, male CF1 mice): 37.5% | Percentage Protection (male CF1 mice [1]; 85 mg/kg IP, 60 min before MES, male CF1 mice): 50% | Percentage Protection (male CF1 mice [1]; [4]): 75% | Percentage Protection (male CF1 mice [1]; [5]): 75% | ED50 (mg/kg, IP) (male CF1 mice [1]; protection from THLE, male CF1 mice, IP, 60 min before MES, listed as commercial CBD): 83.7 ± 5.7 mg/kg

CCCCCc1cc(O)c(C/C=C(\C)CCC=C(C)C)c(O)c1 [cannabigerol]
Percentage Protection (male CF1 mice [1]; [4]): 62.5% | Percentage Protection (male CF1 mice [1]; [5]): 75% | Percentage Protection (male CF1 mice [1]; [6]): 62.5%
